In a compilation of properties of binary mixtures (doi:10.1016/j.molliq.2019.111099):

Assay: xn = mol fraction of the nth substance listed
Conditions: 101 kPa

CCCCc1n(S(=O)(=O)O)cc[n+]1S(=O)(=O)O.O=C([O-])C(F)(F)F + CO
Conditions	electrical conductivity [S/m]
278.15 K, x1 = 0.0255	3.18
283.15 K, x1 = 0.0255	3.01
288.15 K, x1 = 0.0255	2.89
293.15 K, x1 = 0.0255	2.72
298.15 K, x1 = 0.0052	1.41
298.15 K, x1 = 0.0155	1.76
298.15 K, x1 = 0.0255	2.65
303.15 K, x1 = 0.0255	2.45
313.15 K, x1 = 0.0255	2.08
318.15 K, x1 = 0.0255	1.91
323.15 K, x1 = 0.0255	1.73
328.15 K, x1 = 0.0255	1.69
333.15 K, x1 = 0.0255	1.57

CCc1n(S(=O)(=O)O)cc[n+]1S(=O)(=O)O.O=C([O-])C(F)(F)F + CO
Conditions	electrical conductivity [S/m]
278.15 K, x1 = 0.0255	3.75
288.15 K, x1 = 0.0255	3.44
298.15 K, x1 = 0.0104	1.64
298.15 K, x1 = 0.0155	1.93
298.15 K, x1 = 0.0205	2.27
303.15 K, x1 = 0.0255	3.03
308.15 K, x1 = 0.0255	2.95
318.15 K, x1 = 0.0255	2.51
323.15 K, x1 = 0.0255	2.36
328.15 K, x1 = 0.0255	2.19
333.15 K, x1 = 0.0255	1.96

Cc1n(S(=O)(=O)O)cc[n+]1S(=O)(=O)O.O=C([O-])C(F)(F)F + CO
Conditions	electrical conductivity [S/m]
283.15 K, x1 = 0.0255	4
288.15 K, x1 = 0.0255	3.64
298.15 K, x1 = 0.0052	1.38
298.15 K, x1 = 0.0155	2
298.15 K, x1 = 0.0205	2.41
298.15 K, x1 = 0.0255	3.29
298.15 K, x1 = 0.05	4.44
298.15 K, x1 = 0.08	4.49
298.15 K, x1 = 0.1	4.52
298.15 K, x1 = 0.12	4.03
298.15 K, x1 = 0.15	3.28
298.15 K, x1 = 0.18	2.42
298.15 K, x1 = 0.2	1.71
303.15 K, x1 = 0.0255	3.01
308.15 K, x1 = 0.0255	2.98
313.15 K, x1 = 0.0255	2.86
318.15 K, x1 = 0.0255	2.84
323.15 K, x1 = 0.0255	2.73
333.15 K, x1 = 0.0255	2.32

O=C([O-])C(F)(F)F.O=S(=O)(O)n1cc[n+](S(=O)(=O)O)c1 + CO
Conditions	electrical conductivity [S/m]
278.15 K, x1 = 0.0255	5.19
283.15 K, x1 = 0.0255	4.9
293.15 K, x1 = 0.0255	4.26
298.15 K, x1 = 0.0104	2.23
298.15 K, x1 = 0.0155	2.85
298.15 K, x1 = 0.0205	3.56
298.15 K, x1 = 0.0255	4.13
298.15 K, x1 = 0.05	5.45
303.15 K, x1 = 0.0255	4.05
318.15 K, x1 = 0.0255	3.52
323.15 K, x1 = 0.0255	3.46
328.15 K, x1 = 0.0255	3.37
